Results as given in paper PMC10660337, “Mutate and Conjugate: A Method to Enable Rapid In-Cell Target Validation” (ACS Chemical Biology, 2023).

Assays:
[1] = biological target: T1, BRD4(1)^WT (Homo sapiens, UniProt O60885); experiment: Fluorescent labeling of purified protein (CuAAC with TAMRA-PEG3-azide, in-gel fluorescence); type: binding; conditions: 50 μM probe, 10 μM protein, 4 h, 37 °C, then CuAAC 1 h
T1 construct: Characterization of His6-BRD4(1)WT; made in house; host or cells: E. coli BL21 (DE3)
Description: When 28, 29, 30, and 42 were incubated with either purified BRD4(1)^L94C or BRD4(1)^WT and subjected to a copper(I)-catalyzed alkyne–azide click reaction (CuAAC) reaction with the fluorescent TAMRA-PEG3-azide dye, all clickable probes labeled the mutant protein and could be visualized using fluorescence imaging of a gel (Figure 6).
Figure 6 Clickable probes 28, 29, 30, and 42 covalently label BRD4(1)^L94C and undergo a subsequent CuAAC reaction with TAMRA-PEG3 azide to fluorescently label the protein, as shown by in-gel fluorescence imaging. Compounds 28, 29, 30, 41, and 42 (50 μM) were incubated with purified BRD4(1)^L94C or BRD4(1)^WT (10 μM) for 4 h at 37 °C, followed by CuAAC reaction with TAMRA-PEG3 azide for 1 h and separation of components by SDS-PAGE. For all compounds other than 30, only labeling of BRD4(1)^L94C was observed.
50 mM DMSO stock solutions of the compounds were serially diluted, and dispensed into wells (5 μL).
The protein-peptide mixes (7 μL) for each combination were prepared following the specified final assay concentration (Table S19), and dispensed into wells. […]
Assays were performed in 1.5 mL Eppendorf tubes at room temperature, in the dark, and gently shaken, unless otherwise stated. […] Data was analysed and processed using MassLynx. […]
Gels were imaged for fluorescence using Bio-rad molecular imager and then stained for 15 min with […]

[2] = test system: BRD4(1,2)^L94C transiently expressed in HEK293T cells; experiment: In-cell labeling of tandem bromodomain; type: cell-based, human
Description: reaction mix was taken and 8 µL of Lamelli buffer added, and the samples denatured by heating at 95 °C for 10 min. Samples were separated by gel electrophoresis on NuPAGE™ 4–12%, Bis-Tris precast polyacrylamide gels (Thermofisher). Following electrophoresis, gels were stained for 15 min with InstantBlueTM Coomasie® stain (Abcam), destained, and imaged using Bio-rad molecular imager.
Bio-rad Image Lab 6.1 was used to process the data.
In-cell target engagement
In-cell labeling by clickable probes
Transfected HEK293T cells at ~90% confluency were incubated for 1 h with a DMSO control (0.5% DMSO final concentration) or a click probe (10 µM, 0.5% DMSO final concentration) diluted in Opti- […]
Cells were then harvested and lysed using the previously described protocol above. The resulting cell lysates were diluted to 2 mg/mL using the previously described protocol above. […]
Gels were imaged for fluorescence using Bio-rad molecular imager and then stained for 15 min with InstantBlueTM Coomasie® stain (Abcam), destained, and imaged using Bio-rad molecular imager. […]
Transfected HEK293T cells at ~90% confluency were incubated for 30 min with a DMSO control or varying concentrations of OXFBD04 diluted in Opti-MEM media. […] Cells were then harvested, processed, and analysed using the previously described protocol above. […]

SMILES	Labeling of purified BRD4(1)^WT, in-gel fluorescence [1]	In-cell labeling of BRD4(1,2)^L94C (fluorescent band ∼80 kDa) [2]
C#CCOc1ccc(-c2c(C)noc2NC(=O)C=C)cc1 [Compound 30]	low level	
C#CCOc1cc(NC(=O)C=C)ccc1N1CCCC1=O [Compound 42]		selectively label
